The target of one experiment is T1, FLT3-D835Y mutant kinase (Homo sapiens, UniProt P36888, D835Y).
T1 construct: purchased SignalChem
T1 sequence (P36888 27-993 D835Y): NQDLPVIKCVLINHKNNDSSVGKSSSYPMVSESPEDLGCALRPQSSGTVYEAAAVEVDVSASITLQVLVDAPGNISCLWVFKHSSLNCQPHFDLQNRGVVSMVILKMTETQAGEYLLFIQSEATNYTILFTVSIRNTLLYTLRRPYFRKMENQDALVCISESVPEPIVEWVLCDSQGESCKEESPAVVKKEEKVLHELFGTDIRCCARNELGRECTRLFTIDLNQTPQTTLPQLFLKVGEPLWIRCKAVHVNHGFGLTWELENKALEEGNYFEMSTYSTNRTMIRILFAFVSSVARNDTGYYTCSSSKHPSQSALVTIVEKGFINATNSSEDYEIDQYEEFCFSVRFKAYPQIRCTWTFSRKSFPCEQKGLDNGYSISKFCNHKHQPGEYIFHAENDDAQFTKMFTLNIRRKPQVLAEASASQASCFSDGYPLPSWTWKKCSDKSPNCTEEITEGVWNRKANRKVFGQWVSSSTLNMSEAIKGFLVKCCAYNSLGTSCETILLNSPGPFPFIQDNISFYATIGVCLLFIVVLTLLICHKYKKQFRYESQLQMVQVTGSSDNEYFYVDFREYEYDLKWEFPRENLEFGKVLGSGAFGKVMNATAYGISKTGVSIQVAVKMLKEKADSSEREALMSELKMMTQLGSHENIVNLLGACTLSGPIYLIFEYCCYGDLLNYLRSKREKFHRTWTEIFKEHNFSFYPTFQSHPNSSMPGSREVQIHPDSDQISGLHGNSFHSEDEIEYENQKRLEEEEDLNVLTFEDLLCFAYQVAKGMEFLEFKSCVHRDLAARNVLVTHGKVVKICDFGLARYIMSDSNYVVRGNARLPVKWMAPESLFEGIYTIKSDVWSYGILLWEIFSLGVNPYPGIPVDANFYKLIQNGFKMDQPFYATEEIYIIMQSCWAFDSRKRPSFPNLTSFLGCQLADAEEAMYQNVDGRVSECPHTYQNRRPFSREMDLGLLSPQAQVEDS
Put plainly: FLT3-D835Y mutant kinase assay (AlphaScreen). The class given is biochemical. As to conditions: read-out: Ranking of IC50 values, FLT3-D835Y. A digest of the protocol: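 AlphaScreen readout of biotin-poly(Glu4:Tyr1) phosphorylation by 1 ng recombinant FLT3-D835Y. Conditions were 10 μM ATP, 10 mM MgCl2, MOPS pH 7.0, 30 min at 30 °C, EDTA stop. Compounds were serially diluted in duplicate to derive IC50.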

The next experiment has as its target T2, PDGFRα kinase (Homo sapiens, UniProt P16234).
T2 construct: purchased SignalChem
Briefly: PDGFRα kinase assay (AlphaScreen). As to conditions: read-out: Ranking of IC50 values, PDGFRα. It counts as biochemical. As for the experimental part: Inhibition of PDGFRα kinase activity by a test compound disclosed herein was estimated by AlphaScreen (PerkinElmer). Standard assay conditions were 1.5 ng of recombinant PDGFRα kinase (SignalChem) with 6 ng Biotin-conjugated Poly-(Glu 4: Tyr 1) (Cisbio) in the assay buffer (10 μM ATP, 10 mM MOPs, pH 7.0, 0.21 mM EDTA, 0.5% glycerol, 1 mg/mL BSA, 0.01% 2-mercaptoethanol, 0.001% Brij35, 10 mM MgCl2) in a final volume of 25 μL. Reactions were incubated at 30° C. for 30 min and stopped by adding […] of 50 mM EDTA. Analysis of resulting product using an AlphaScreen kit and counted with Enspire Alpha (PerkinElmer). […] The IC50 values of inhibitors were determined after carrying out assays with each compound at serially diluted concentrations in duplication. The results were analyzed using linear regression software (GraphPad Prism 5; GraphPad Software Inc.)

Experiment [1] deals with A375 melanoma cell with BRAF V600E mutation. Put plainly: A375 cell proliferation assay (counter screen). The class given is cell-based, human. As to conditions: Homo sapiens, A-375, A375 cells, 72 hours treatment, CellTiter96, read-out: anti-proliferation activity A375 BRAF V600E, IC50 ranking. How it is done:
(§1) Inhibitions of cell growths by compounds were measured using CellTiter™-96 assay. The cytotoxicities of compounds of the invention were evaluated in cell line panels with different signaling pathway dependencies, including MV4-11 human acute myeloid leukemia cell with FLT3-ITD mutation, Molm-14 human acute myeloid leukemia cell with FLT3-ITD mutation, THP-1 human acute monocytic leukemia cell with NRAS G12D mutation, A375 melanoma cell with BRAF V600E mutation, and HCC827 NSCLC cell with EGFR exon 19 deletion mutation.
A375 cells are melanoma cells encoding BRFA V600E mutation, which renders the cell growth dependent on BRAF signaling instead of class III RTKs signaling. A375 cells (catalog #CRL-1619) were obtained from the ATCC. Briefly, cells were cultured in DMEM containing 10% FBS and incubated at 37° C. in 5% CO2 atmosphere. Cells were allowed to expand until reaching saturation, at which point they were sub-cultured or harvested for assay use.
(§2) MV4-11, Molm-14, THP-1, A375, and HCC827 cells were seeded into 96-well plates at 6500, 25000, 5000, 2000 and 8000 cells/well, respectively, and incubated at 37° C., 5% CO2 overnight. Then, these seeded cells were treated with increasing concentrations of the test compounds and incubated for another 72 hours. At the end of the incubation, CellTiter96® AQueous One Solution Reagent (Promega, […]) was added and incubated for the additional 2˜4 hours. Cell viability was determined by measuring absorbance at 490 nm using EMax® microplate reader (Molecular Devices, San Jose, CA, USA).

Experiment [2] deals with HCC827 NSCLC cell with EGFR exon 19 deletion mutation. Put plainly: HCC827 cell proliferation assay (counter screen). The class given is cell-based, human. As to conditions: Homo sapiens, HCC827 cells, 72 hours treatment, CellTiter96, read-out: anti-proliferation activity HCC827 EGFR Exon19 del, IC50 ranking. As for the experimental part:
as §1
HCC827 cells are non-small cell lung carcinoma (NSCLC) cells encoding EGFR exon 19 deletion mutation, which renders the cell growth dependent on EGFR signaling instead of class III RTKs signaling. HCC827 cells (catalog #CRL-2868) were obtained from the ATCC. Briefly, cells were cultured in RPMI1640 medium supplemented with 10% FBS and incubated at 37° C. in 5% CO2 atmosphere. Cells were allowed to expand until reaching saturation, at which point they were sub-cultured or harvested for assay use.
as §2

T2 sequence (P16234 24-1089): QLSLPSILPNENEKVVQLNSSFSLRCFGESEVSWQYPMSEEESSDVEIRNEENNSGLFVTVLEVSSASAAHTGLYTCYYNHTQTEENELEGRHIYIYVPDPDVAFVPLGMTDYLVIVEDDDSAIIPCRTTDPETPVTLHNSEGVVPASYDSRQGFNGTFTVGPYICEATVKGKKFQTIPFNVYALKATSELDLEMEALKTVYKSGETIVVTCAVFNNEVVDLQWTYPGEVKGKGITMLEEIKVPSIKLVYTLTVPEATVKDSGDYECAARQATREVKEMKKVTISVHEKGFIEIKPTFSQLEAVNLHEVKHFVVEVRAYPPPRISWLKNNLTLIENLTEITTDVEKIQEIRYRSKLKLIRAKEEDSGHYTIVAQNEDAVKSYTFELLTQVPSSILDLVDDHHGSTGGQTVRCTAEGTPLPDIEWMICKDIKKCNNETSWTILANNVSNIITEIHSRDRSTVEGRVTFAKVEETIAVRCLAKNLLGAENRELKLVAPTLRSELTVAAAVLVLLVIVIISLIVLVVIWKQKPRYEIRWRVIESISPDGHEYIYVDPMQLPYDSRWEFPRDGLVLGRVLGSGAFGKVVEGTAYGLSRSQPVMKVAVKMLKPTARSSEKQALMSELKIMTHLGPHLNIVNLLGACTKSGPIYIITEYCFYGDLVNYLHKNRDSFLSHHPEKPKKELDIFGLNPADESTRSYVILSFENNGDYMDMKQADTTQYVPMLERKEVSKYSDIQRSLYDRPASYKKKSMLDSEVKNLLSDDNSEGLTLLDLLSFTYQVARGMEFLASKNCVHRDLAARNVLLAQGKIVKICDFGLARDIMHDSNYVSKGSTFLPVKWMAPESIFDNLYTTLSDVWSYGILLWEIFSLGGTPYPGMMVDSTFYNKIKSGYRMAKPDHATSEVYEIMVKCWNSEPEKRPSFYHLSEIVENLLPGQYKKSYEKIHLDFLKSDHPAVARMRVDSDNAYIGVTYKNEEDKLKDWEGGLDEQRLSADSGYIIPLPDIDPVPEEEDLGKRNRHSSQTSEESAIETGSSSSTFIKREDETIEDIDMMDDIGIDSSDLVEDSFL

Consider `Cn1ncc2ccc(-c3n[nH]c4c3Cc3sc(-c5ccc(CC6CCOCC6)cc5)cc3-4)cc21` [Compound 77, 3-(1-methyl-1H-indazol-6-yl)-6-(4-((tetrahydro-2H-pyran-4-yl)methyl)phenyl)-1,4-dihydrothieno [2′,3′:4,5]cyclopenta [1,2-c]pyrazole], for which the IC50 at FLT3-D835Y mutant kinase is 1 to 10 nM; at PDGFRα kinase, 30 to 100 nM; in experiment [1], 1000 to 10000 nM; in experiment [2], > 10000 nM.

With `Cn1ncc2ccc(-c3n[nH]c4c3Cc3sc(C#CCN5CCOCC5)cc3-4)cc21` [Compound 71, 4-(3-(3-(1-methyl-1H-indazol-6-yl)-1,4-dihydro-thieno[2′,3′:4,5]cyclopenta [1,2-c]pyrazol-6-yl)prop-2-yn-1-yl)morpholine], the IC50 at FLT3-D835Y mutant kinase was < 1 nM; at PDGFRα kinase, 30 to 100 nM; in experiment [1] it was 1000 to 10000 nM; in experiment [2], > 10000 nM.

With `Cn1ncc2ccc(-c3n[nH]c4c3Cc3sc(-c5ccc(NC6CCOCC6)cc5)cc3-4)cc21` [Compound 72, N-(4-(3-(1-methyl-1H-indazol-6-yl)-1,4-dihydro-thieno[2′,3′:4,5]cyclopenta [1,2-c]pyrazol-6-yl)phenyl)tetrahydro-2H-pyran-4-amine], the IC50 at FLT3-D835Y mutant kinase is 1 to 10 nM; at PDGFRα kinase, 10 to 30 nM; in experiment [1] it was > 10000 nM; in experiment [2], > 10000 nM.

`CN(C)C(=O)c1ccc(-c2cc3c(s2)Cc2c(-c4ccc5cnn(C)c5c4)n[nH]c2-3)cc1` [Compound 49, N,N-dimethyl-4-(3-(1-methyl-1H-indazol-6-yl)-1,4-dihydrothieno [2′,3′:4,5]cyclopenta [1,2-c]pyrazol-6-yl) benzamide]: the IC50 on FLT3-D835Y mutant kinase is < 1 nM; at PDGFRα kinase it was 1 to 10 nM; in experiment [1] it was > 10000 nM; in experiment [2], > 10000 nM.

For the compound `C[C@H]1COCCN1Cc1ccc(-c2cc3c(s2)Cc2c(-c4ccc5cnn(C)c5c4)n[nH]c2-3)cc1` [Compound 75, (S)-3-methyl-4-(4-(3-(1-methyl-1H-indazol-6-yl)-1,4-dihydrothieno [2′,3′:4,5]cyclopenta [1,2-c]pyrazol-6-yl)benzyl)morpholine], the IC50 was < 1 nM at FLT3-D835Y mutant kinase, 1 to 10 nM at PDGFRα kinase, > 10000 nM in experiment [1] and > 10000 nM in experiment [2].

For the compound `Cn1ncc2ccc(-c3n[nH]c4c3Cc3sc(-c5cc(F)c(CN6CCOCC6)c(F)c5)cc3-4)cc21` [Compound 53, 4-(2,6-difluoro-4-(3-(1-methyl-1H-indazol-6-yl)-1,4-dihydrothieno [2′,3′:4,5]cyclopenta [1,2-c]pyrazol-6-yl)benzyl)morpholine], the IC50 at FLT3-D835Y mutant kinase was 1 to 10 nM; on PDGFRα kinase, 30 to 100 nM; in experiment [1] it was > 10000 nM; in experiment [2] it was > 10000 nM.

As for `C[C@@H]1CN(Cc2ccc(-c3cc4c(s3)Cc3c(-c5ccc6cn[nH]c6c5)n[nH]c3-4)cc2)C[C@H](C)O1` [Compound 7, (2S,6R)-4-(4-(3-(1H-indazol-6-yl)-1,4-dihydrothieno[2′,3′:4,5]cyclopenta [1,2-c]pyrazol-6-yl)benzyl)-2,6-dimethylmorpholine], the IC50 on FLT3-D835Y mutant kinase was 1 to 10 nM; at PDGFRα kinase, 1 to 10 nM; in experiment [1], > 10000 nM; in experiment [2], > 10000 nM.

Take `Cn1ncc2ccc(-c3n[nH]c4c3Cc3sc(-c5ccc(CN6CCOCC6)c(C(F)(F)F)c5)cc3-4)cc21` [Compound 27, 4-(4-(3-(1-methyl-1H-indazol-6-yl)-1,4-dihydrothieno[2′,3′:4,5]cyclopenta[1,2-c]pyrazol-6-yl)-2-(trifluoromethyl)benzyl)morpholine]: the IC50 at FLT3-D835Y mutant kinase is 1 to 10 nM; at PDGFRα kinase, 100 to 300 nM; in experiment [1], > 10000 nM; in experiment [2] it was > 10000 nM.

For the origin of these results see patent US12448394B2, “Heterocyclic pyrazole derivatives as type III receptor tyrosine kinase inhibitors” (DEVELOPMENT CENTER FOR BIOTECHNOLOGY, priority 2019, dated 2025).
